Experiment [1] relates to HCV genotype 1a (H77 strain) replicon in HUH-7 cells. Nature of the experiment: HCV replicon luciferase reporter assay, genotype 1a. The following applies: Hepatitis C virus, 72 h, genotype 1a replicon, 3 days incubation, read-out: LE_1a (EC50, range). It is filed as cell-based. The method, boiled down:
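Stable HUH-7 line carrying luciferase-reporter genotype 1a (H77) replicon with adaptive NS3 P1496L and NS5A S2204I mutations; 3.0×10^3 cells/well in 4% FCS, 0.5% DMSO, twenty-point 3-fold titration, 3 days at 37 °C. Renilla luminescence with 7.5 μM EnduRen; EC50 by four-parameter logistic fit; CC50 by multiplexed Cell Titer-Blue.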
A general note: In antiviral work, replicon cells carry a viral genome segment that copies itself.

Experiment [2] concerns HCV genotype 1b (Con1) replicon in HUH-7 cells. Put plainly: HCV replicon luciferase reporter assay, genotype 1b. It is filed as cell-based. The following applies: Hepatitis C virus, 72 h, genotype 1b replicon, 3 days incubation, read-out: LE_1b (EC50, range). The gist of the method:
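Replication was read as Renilla luciferase signal, using 7.5 μM EnduRen substrate with a 2-h incubation at 37 °C. The signal came from a HUH-7 line constitutively expressing a luciferase-tagged 1b (Con1) replicon carrying S1179I.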

The structures appear in SMILES notation.

What is called EC50 is the concentration giving half of the maximal effect. On to `COc1ccc2c(O[C@@H]3C[C@H]4C(=O)N[C@]5(C(=O)NS(=O)(=O)C6(CF)CC6)C[C@H]5/C=C\CC[C@@H](C)O[C@@H](C)[C@H](NC(=O)OC(C)(C)C(F)(F)F)C(=O)N4C3)nccc2c1` [Compound 2013, 1,1,1-trifluoro-2-methylpropan-2-yl ((2R,6S,7S,9R,13a5,14aR,16aS,Z)-14a-(((1-(fluoromethyl)cyclopropyl)sulfonyl)carbamoyl)-2-((6-methoxyisoquinolin-1-yl)oxy)-7,9-dimethyl-5,16-dioxo-2,3,5,6,7,9,10,11,13a,14,14a,15,16,16a-tetradecahydro-1H-cyclopropa[i]pyrrolo[1,2-e][1,5,8]oxadiazacyclopentadecin-6-yl)carbamate], for which the EC50 in experiment [1] is 1.01 to 5 nM; in experiment [2], 0.51 to 1 nM.
For `COc1cnc(O[C@@H]2C[C@H]3C(=O)N[C@]4(C(=O)NS(=O)(=O)C5(CF)CC5)C[C@H]4/C=C\CC[C@@H](C)O[C@@H](C)[C@H](NC(=O)OC(C)(C)C(F)(F)F)C(=O)N3C2)c2ccccc12` [Compound 2015, 1,1,1-trifluoro-2-methylpropan-2-yl ((2R,6S,7S,9R,13a5,14aR,16aS,Z)-14a-(((1-(fluoromethyl)cyclopropyl)sulfonyl)carbamoyl)-2-((4-methoxyisoquinolin-1-yl)oxy)-7,9-dimethyl-5,16-dioxo-2,3,5,6,7,9,10,11,13a,14,14a,15,16,16a-tetradecahydro-1H-cyclopropa[i]pyrrolo[1,2-e][1,5,8]oxadiazacyclopentadecin-6-yl)carbamate] the same measures were 1.01 to 5 nM and 0.51 to 1 nM.
For `CC[C@@H]1O[C@H](C)CC/C=C\[C@@H]2C[C@@]2(C(=O)NS(=O)(=O)C2(C)CC2)NC(=O)[C@@H]2C[C@@H](Oc3nccc4cc(OC)ccc34)CN2C(=O)[C@H]1NC(=O)OC(C)(C)C(F)(F)F` [Compound 1006] the same measures were 1.01 to 5 nM and 0.1 to 0.5 nM.
For `CC[C@@H]1O[C@H](C)CC/C=C\[C@@H]2C[C@@]2(C(=O)NS(=O)(=O)C2(C)CC2)NC(=O)[C@@H]2C[C@@H](Oc3nc4c(c5ccccc35)CCCO4)CN2C(=O)[C@H]1NC(=O)OC(C)(C)C(C)(F)F` [Compound 2301, 3,3-difluoro-2-methylbutan-2-yl ((2R,6S,7S,9R,13aS,14aR,16aS,Z)-2-((2,3-dihydro-1H-pyrano[2,3-c]isoquinolin-6-yl)oxy)-7-ethyl-9-methyl-14a-(((1-methylcyclopropyl)sulfonyl)carbamoyl)-5,16-dioxo-2,3,5,6,7,9,10,11,13a,14,14a,15,16,16a-tetradecahydro-1H-cyclopropa[i]pyrrolo[1,2-e][1,5,8]oxadiazacyclopentadecin-6-yl)carbamate] the same measures were 0.51 to 1 nM and 0.1 to 0.5 nM.
Take `CC[C@@H]1OCCC/C=C\[C@@H]2C[C@@]2(C(=O)NS(=O)(=O)C2(C)CC2)NC(=O)[C@@H]2C[C@@H](Oc3nccc4cc(OC)c(F)cc34)CN2C(=O)[C@H]1NC(=O)OC(C)(C)C(F)(F)F` [Compound 1009]: the EC50 in experiment [1] and in experiment [2] was 1.01 to 5 nM in each case.
For the compound `CC[C@@H]1O[C@H](C)CC/C=C\[C@@H]2C[C@@]2(C(=O)NS(=O)(=O)C2(C)CC2)NC(=O)[C@@H]2C[C@@H](Oc3nccc4c5c(ccc34)OCCO5)CN2C(=O)[C@H]1NC(=O)OC(C)(C)C(C)(F)F` [Compound 2609, 3,3-difluoro-2-methylbutan-2-yl ((2R,6S,7S,9R,13aS,14aR,16aS,Z)-2-((2,3-dihydro-[1,4]dioxino[2,3-f]isoquinolin-7-yl)oxy)-7-ethyl-9-methyl-14a-(((1-methylcyclopropyl)sulfonyl)carbamoyl)-5,16-dioxo-2,3,5,6,7,9,10,11,13a,14,14a,15,16,16a-tetradecahydro-1H-cyclopropa[i]pyrrolo[1,2-e][1,5,8]oxadiazacyclopentadecin-6-yl)carbamate], the values for the EC50 in experiment [1] and in experiment [2] were 1.01 to 5 nM and 0.51 to 1 nM, respectively.
For `CC[C@@H]1O[C@H](C)CC/C=C\[C@@H]2C[C@@]2(C(=O)NS(=O)(=O)C2(C)CC2)NC(=O)[C@@H]2C[C@@H](Oc3nc4c(c5ccccc35)CCCO4)CN2C(=O)[C@H]1NC(=O)OC(C)(C)C(F)(F)F` [Compound 2302, 1,1,1-trifluoro-2-methylpropan-2-yl ((2R,6S,7S,9R,13aS,14aR,16aS,Z)-2-((2,3-dihydro-1H-pyrano[2,3-c]isoquinolin-6-yl)oxy)-7-ethyl-9-methyl-14a-(((1-methylcyclopropyl)sulfonyl)carbamoyl)-5,16-dioxo-2,3,5,6,7,9,10,11,13a,14,14a,15,16,16a-tetradecahydro-1H-cyclopropa[i]pyrrolo[1,2-e][1,5,8]oxadiazacyclopentadecin-6-yl)carbamate] the same measures were 0.51 to 1 nM and 0.1 to 0.5 nM.
For `CC[C@@H]1O[C@H](C)CC/C=C\[C@@H]2C[C@@]2(C(=O)NS(=O)(=O)C2(C)CC2)NC(=O)[C@@H]2C[C@@H](Oc3nc(OC)cc4cc(OC)ccc34)CN2C(=O)[C@H]1NC(=O)OC(C)(C)C(F)(F)F` [Compound 1002, 1,1,1-trifluoro-2-methylpropan-2-yl ((2R,6S,7S,9R,13aS,14aR,16aS,Z)-2-((3,6-dimethoxyisoquinolin-1-yl)oxy)-7-ethyl-9-methyl-14a-(((1-methylcyclopropyl)sulfonyl)carbamoyl)-5,16-dioxo-2,3,5,6,7,9,10,11,13a,14,14a,15,16,16a-tetradecahydro-1H-cyclopropa[i]pyrrolo[1,2-e][1,5,8]oxadiazacyclopentadecin-6-yl)carbamate] the same measures were 0.51 to 1 nM and 0.1 to 0.5 nM.
With `CC[C@@H]1O[C@H](C)CC/C=C\[C@@H]2C[C@@]2(C(=O)NS(=O)(=O)C2(C)CC2)NC(=O)[C@@H]2C[C@@H](Oc3ncc(OC)c4ccc(F)cc34)CN2C(=O)[C@H]1NC(=O)OC(C)(C)C(F)(F)F` [Compound 2606], the EC50 in experiment [1] lay within 0.51 to 1 nM; in experiment [2], 0.1 to 0.5 nM.
The like results for `CCOc1cc2ccnc(O[C@@H]3C[C@H]4C(=O)N[C@]5(C(=O)NS(=O)(=O)C6(C)CC6)C[C@H]5/C=C\CC[C@@H](C)O[C@@H](CC)[C@H](NC(=O)OC(C)(C)C(C)(F)F)C(=O)N4C3)c2cc1F` [Compound 2607, 3,3-difluoro-2-methylbutan-2-yl ((2R,6S,7S,9R,13 aS,14aR,16aS,Z)-2-((6-ethoxy-7-fluoroisoquinolin-1-yl)oxy)-7-ethyl-9-methyl-14a-(((1-methylcyclopropyl)sulfonyl)carbamoyl)-5,16-dioxo-2,3,5,6,7,9,10,11,13a,14,14a,15,16,16a-tetradecahydro-1H-cyclopropa[i]pyrrolo[1,2-e][1,5,8]oxadiazacyclopentadecin-6-yl)carbamate] were, in that order, 0.51 to 1 nM and 0.1 to 0.5 nM.
The like results for `CCOc1cc2ccnc(O[C@@H]3C[C@H]4C(=O)N[C@]5(C(=O)NS(=O)(=O)C6(C)CC6)C[C@H]5/C=C\CC[C@@H](C)O[C@@H](CC)[C@H](NC(=O)OC(C)(C)C(F)F)C(=O)N4C3)c2cc1F` [Compound 2615, 1,1-difluoro-2-methylpropan-2-yl ((2R,6S,7S,9R,13 aS,14aR,16aS,Z)-2-((6-ethoxy-7-fluoroisoquinolin-1-yl)oxy)-7-ethyl-9-methyl-14a-(((1-methylcyclopropyl)sulfonyl)carbamoyl)-5,16-dioxo-2,3,5,6,7,9,10,11,13a,14,14a,15,16,16a-tetradecahydro-1H-cyclopropa[i]pyrrolo[1,2-e][1,5,8]oxadiazacyclopentadecin-6-yl)carbamate] were, in that order, 0.51 to 1 nM and 0.51 to 1 nM.
For the compound `CC[C@@H]1O[C@H](C)CC/C=C\[C@@H]2C[C@@]2(C(=O)NS(=O)(=O)C2(C)CC2)NC(=O)[C@@H]2C[C@@H](Oc3nccc4cc(OC)c(F)cc34)CN2C(=O)[C@H]1NC(=O)OC(C)(C)C(F)F` [Compound 2616], the EC50 in experiment [1] and in experiment [2] was 1.01 to 5 nM in each case.
Take `CC[C@@H]1O[C@H](C)CC/C=C\[C@@H]2C[C@@]2(C(=O)NS(=O)(=O)C2(C)CC2)NC(=O)[C@@H]2C[C@@H](Oc3nc(-c4ccc(OC(C)C)cn4)cc4cc(OC)ccc34)CN2C(=O)[C@H]1NC(=O)OC(C)(C)C(C)(F)F` [Compound 2613, 3,3-difluoro-2-methylbutan-2-yl ((2R,6S,7S,9R,13aS,14aR,16aS,Z)-7-ethyl-2-((3-(5-isopropoxypyridin-2-yl)-6-methoxyisoquinolin-1-yl)oxy)-9-methyl-14a-(((1-methylcyclopropyl)sulfonyl)carbamoyl)-5,16-dioxo-2,3,5,6,7,9,10,11,13a,14,14a,15,16,16a-tetradecahydro-1H-cyclopropa[i]pyrrolo[1,2-e][1,5,8]oxadiazacyclopentadecin-6-yl)carbamate]: the EC50 in experiment [1] was 1.01 to 5 nM; in experiment [2] it was 0.1 to 0.5 nM.
On to `CC[C@@H]1O[C@H](C)CC/C=C\[C@@H]2C[C@@]2(C(=O)NS(=O)(=O)C2(CF)CC2)NC(=O)[C@@H]2C[C@@H](Oc3ncc(OC)c4ccccc34)CN2C(=O)[C@H]1NC(=O)OC(C)(C)C(F)(F)F` [Compound 1014], for which the 50% effective concentration (EC50) in experiment [1] and in experiment [2] was 1.01 to 5 nM each time.

For the origin of these results see US9598433B2, “Hepatitis C virus inhibitors” (BRISTOL-MYERS SQUIBB COMPANY, priority 2012, dated 2017).
